Experimental data as given in patent US12502374B2, “Composition for preventing, alleviating, or treating inflammatory disease containing isookanin or salt thereof as active ingredient” (BioSpectrum, Inc., priority 2020, dated 2025).

What was measured:
Janus kinase 1 = Janus kinase 1 (Homo sapiens, UniProt P23458); assay: Janus kinase 1 activity inhibition, HTRF KinEASE-TK kit (TR-FRET); format: biochemical; conditions: FIG. 1
Procedure: The effect of isookanin on the inhibition of Janus kinase 1 activity was measured using the HTRF KinEASE-TK kit (Cisbio, France). HTRF is a time-resolved fluorescence resonance energy transfer technology (TR-FRET) analysis method, which is applied to high-throughput screening (HTS) and is one of the methods widely used in drug development. From general cytokine measurement, enzyme activity, protein phosphorylation, protein-protein interaction, cAMP measurement, and the like can be measured by fluorescence through acceptor/donor reaction, and HTRF has an advantage in that, since measurement is carried out in two wavelength regions, it is possible to reduce interference from buffers and media. All components of the HTRF KinEase™-TK kit were handled according to the instructions. For kinases, the ability of a test substance to inhibit kinase activity is measured by allowing a kinase to react with an appropriate substrate in the presence or absence of a sample and capturing the phosphorylated substrate by a detection reagent. Briefly, the following two steps performed.
A kinase is allowed to react with an appropriate substrate in the presence and absence of a sample. Enzyme buffer is used as a control (−) instead of the sample, and the group treated with 100 nM of loxolitinib is used as a positive control. […]
Step 2. Fluorescence Detection […]

COX-2 = target: T1, COX-2 (Homo sapiens, UniProt P35354); assay: COX-2 enzyme activity, cyclooxygenase (COX) activity assay kit; format: biochemical; conditions: 5, 10 and 20 ppm; FIG. 5
T1 construct: BioVision
T1 sequence (P35354 18-604): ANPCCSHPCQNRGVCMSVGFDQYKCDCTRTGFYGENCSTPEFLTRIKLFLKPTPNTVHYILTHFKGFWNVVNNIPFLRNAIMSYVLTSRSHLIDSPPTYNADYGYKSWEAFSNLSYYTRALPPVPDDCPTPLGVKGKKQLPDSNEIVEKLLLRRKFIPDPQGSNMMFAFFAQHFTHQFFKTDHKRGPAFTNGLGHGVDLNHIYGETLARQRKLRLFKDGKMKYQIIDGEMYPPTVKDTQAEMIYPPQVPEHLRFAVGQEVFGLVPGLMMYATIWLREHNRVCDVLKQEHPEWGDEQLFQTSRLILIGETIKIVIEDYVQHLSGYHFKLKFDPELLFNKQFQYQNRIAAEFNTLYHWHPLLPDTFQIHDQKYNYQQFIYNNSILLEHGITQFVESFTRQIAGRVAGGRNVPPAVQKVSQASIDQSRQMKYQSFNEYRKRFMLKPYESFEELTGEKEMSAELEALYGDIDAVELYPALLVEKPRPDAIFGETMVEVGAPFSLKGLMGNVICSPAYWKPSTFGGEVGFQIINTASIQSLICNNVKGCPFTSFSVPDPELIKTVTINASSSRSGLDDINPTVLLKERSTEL
Procedure: COX-2 enzyme inhibitory activity was measured using a cyclooxygenase (COX) activity assay kit (BioVision). 2 μl of COX probe, 4 μl of diluted COX cofactor, and varying concentrations (5, 10, and 20 ppm) of isookanin were added to the COX assay buffer included in the kit. As a negative control, DMSO was added instead of isookanin, and as a positive control, the COX-2 inhibitor celecoxib was added.

human skin = assay: Human skin safety, repeated insult patch test (Finn chamber); format: in vivo; conditions: 30 healthy adults
Procedure: In order to confirm that the isookanin according to the present invention is safe for human skin, a skin safety verification test was performed. To this end, a repeated insult patch test was conducted.
Nourishing creams containing the isookanin in amounts of 0.1%, 0.5% and 1%, respectively, were prepared. Specifically, a water phase containing purified water, triethanolamine and propylene glycol was dissolved by heating to 70° C. and then emulsified by adding a solution obtained by dissolving beeswax, liquid paraffin, an oil component, an emulsifier and a preservative by heating to 70° C. After completion of emulsification, the solution was cooled to 45° C., and the isookanin was added thereto in amounts of 0.1%, 0.5% and 1% and dispersed therein, followed by cooling to 30° C. As the content of the isookanin was increased from 0.1% to 0.5% and 1%, the content of liquid paraffin was decreased from 9.91% to 9.51% and 9.01%, respectively, thereby preparing nourishing creams.
Using the nourishing creams prepared as described above, a repeated insult patch test was conducted on the upper arm areas of 30 healthy adults every other day for a total of 9 times for 24 hours per time to determine whether the isookanin irritated the skin.
The patch test was performed using a Finn chamber (Epitest Ltd., Finland). 15 μl of each of the external skin preparations was dropped into the chamber, and then the patch test was performed.
[Equation 1] Average degree of reaction=[[(reaction index×degree of reaction)/(total number of subjects×highest score (4)]×100]÷number of tests (9)
In the degree of reaction, ± represents a score of 1, + represents a score of 2, and ++ represents a score of 4. When the average degree of reaction is less than 3, the corresponding composition is determined to be safe.

Chain of Janus kinase 1 (P23458 whole entry, species assumed): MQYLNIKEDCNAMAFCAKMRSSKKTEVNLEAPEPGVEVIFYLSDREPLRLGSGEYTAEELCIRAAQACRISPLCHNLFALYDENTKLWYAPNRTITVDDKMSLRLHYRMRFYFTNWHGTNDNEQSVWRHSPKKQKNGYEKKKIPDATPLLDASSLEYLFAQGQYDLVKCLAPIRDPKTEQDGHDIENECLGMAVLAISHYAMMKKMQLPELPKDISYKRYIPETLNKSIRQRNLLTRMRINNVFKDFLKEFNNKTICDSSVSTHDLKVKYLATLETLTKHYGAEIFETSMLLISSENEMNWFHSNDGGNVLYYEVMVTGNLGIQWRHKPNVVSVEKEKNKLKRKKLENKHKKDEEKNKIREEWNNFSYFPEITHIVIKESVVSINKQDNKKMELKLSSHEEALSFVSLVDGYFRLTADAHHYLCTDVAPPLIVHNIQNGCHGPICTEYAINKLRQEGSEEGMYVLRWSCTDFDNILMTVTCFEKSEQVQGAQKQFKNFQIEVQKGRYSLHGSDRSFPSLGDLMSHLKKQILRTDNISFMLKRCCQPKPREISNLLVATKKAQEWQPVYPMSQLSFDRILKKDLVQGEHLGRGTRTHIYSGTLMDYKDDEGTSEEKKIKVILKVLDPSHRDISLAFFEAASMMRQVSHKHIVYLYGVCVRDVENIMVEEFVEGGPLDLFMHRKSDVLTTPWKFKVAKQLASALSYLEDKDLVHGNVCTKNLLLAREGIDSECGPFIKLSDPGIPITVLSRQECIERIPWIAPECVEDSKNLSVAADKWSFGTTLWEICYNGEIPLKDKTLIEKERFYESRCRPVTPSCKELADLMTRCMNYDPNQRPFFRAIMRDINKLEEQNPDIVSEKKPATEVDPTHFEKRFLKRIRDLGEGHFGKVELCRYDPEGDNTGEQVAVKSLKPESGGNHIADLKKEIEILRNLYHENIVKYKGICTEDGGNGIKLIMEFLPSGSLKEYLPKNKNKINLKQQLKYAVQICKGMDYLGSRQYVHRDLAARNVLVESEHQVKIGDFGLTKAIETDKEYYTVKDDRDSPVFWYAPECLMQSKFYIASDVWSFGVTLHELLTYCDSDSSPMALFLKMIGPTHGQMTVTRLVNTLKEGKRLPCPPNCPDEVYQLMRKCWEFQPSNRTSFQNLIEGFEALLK

inhibition of Janus kinase 1 activity (Janus kinase 1): significantly inhibited
Compound: O=C1C[C@@H](c2ccc(O)c(O)c2)Oc2c1ccc(O)c2O [isookanin]
inhibition of COX-2 enzyme activity (COX-2): inhibiting the activity of COX-2 enzyme in a concentration-dependent manner
Average degree of reaction (human skin; upper arm, 24 hours per patch, Equation 1, less than 3 is determined to be safe): ≤ 3
skin safety conclusion of the repeated insult patch test (human skin; nourishing creams with 0.1%, 0.5% and 1% isookanin): safe substance that shows no remarkable cumulative irritation aspect
